Data from patent publication US20090011442A1, “TB diagnostics based on mycobacterium tuberculosis excretory secretory antigens and their specific immunoglobulins” (priority 2007, published 2009).
Read-outs that look alike come from different tables or passages of the source.

Tests used:
[1] = tested on: mycobacterial serine protease (Seva TB ES-31); assay type: biochemical, Mycobacterium tuberculosis H37Ra
M. tb H37Ra bacilli = experiment: microbe, parasite or virus in culture; assay type: cell-based, Mycobacterium tuberculosis H37Ra
[2] = Mycobacterium tuberculosis, H37RA, read-out: % Inhibition on culture

| Compound | serine protease enzyme activity, effect in words [1] | % Inhibition of Serine protease [1] [%] | Effect on H37Ra culture (LJ slant/Sautons' medium) (M. tb H37Ra bacilli) | bacillary growth on LJ slant and in Sautons' broth, effect in words (M. tb H37Ra bacilli) | Inhibition (%) [1] [%] | Residual activity (%) [1] [%] | other results |
| --- | --- | --- | --- | --- | --- | --- | --- |
| O=c1oc(Cl)c(Cl)c2ccccc12 [3,4-Dichloroisocoumarin] | inhibited | – | – | – | – | – | Inhibition (%) ([1]; 10 µM): 90%; Residual activity (%) ([1]; 10 µM): 9.84 ± 0.07%; inhibition at 0.2 µM (M. tb H37Ra bacilli; [2]): 85% |
| CC[C@@H](CO)NCCN[C@@H](CC)CO [EMB, ethambutol] | inhibited | 70 | No Growth | inhibition of bacillary growth | – | – | – |
| O=C(O)CN(CCN(CC(=O)O)CC(=O)O)CC(=O)O [Ethylene diamine tetracetic acid (EDTA), Ethylene diamine tetracetic acid] | inhibited | – | – | – | 65 | 35.3 ± 0.89 | – |
| NC(=O)c1cnccn1 [PZA] | – | 0 | – | – | – | – | – |
| O=S(=O)(F)Cc1ccccc1 [Phenyl methyl sulphonyl fluoride (PMSF), Phenyl methyl sulphonyl fluoride] | inhibited | – | – | – | 80 | 19.6 ± 0.2 | % Inhibition on culture (M. tb H37Ra bacilli; 20 µM): 72% |
| NNC(=O)c1ccncc1 [INH, isoniazid] | inhibited | 85 | No Growth | inhibition of bacillary growth | – | – | inhibition of serine protease activity [1]: 85% |
| c1cnc2c(c1)ccc1cccnc12 [1,10 Phenanthroline] | inhibited | – | – | – | 78 | 22.4 ± 0.47 | inhibition at 10 µM (M. tb H37Ra bacilli; [2]): 81% |
| [H]/N=C(/N)N[C@H]1[C@H](O)[C@@H](O)[C@H](O[C@@H]2O[C@@H](C)[C@](O)(C=O)[C@H]2O[C@@H]2O[C@@H](CO)[C@H](O)[C@@H](O)[C@@H]2NC)[C@@H](N/C(N)=N\[H])[C@@H]1O [SM, streptomycin] | inhibited | 30 | No Growth | inhibition of bacillary growth | – | – | – |
| Cl.NCCc1ccc(S(=O)(=O)F)cc1 [Pefabloc] | inhibited | – | – | – | 92 | 7.56 ± 0.07 | % Inhibition on culture (M. tb H37Ra bacilli; 10 µM): 88% |
